Read-outs that look alike come from different tables or passages of the source.
Assays:
[1] = test system: normal human lung fibroblasts (NHLF); experiment: Phenotypic high-content assay (HCA) of TGF–β1–induced fibroblast–to–myofibroblast differentiation; assay type: cell-based; settings: for IC50: 5 ng/ml TGF–β1 for 48 h, compound added with TGF–β1, mean ± SD, read-out: HCA IC50; for inhibition at 10 µM: read-out: Effect HCA at 10 µM [% inhibition], 10 µM compound, 5 ng/ml TGF–β1, 48 h
In short: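 NHLF starved 24 h in serum-free basal medium with 0.1% BSA, then given compounds together with 5 ng/ml TGF-β1 for 48 h (0.6% DMSO). Methanol-fixed cells imaged for DAPI, α-SMA and FN; an SVM trained on ±TGF-β1 controls classified each cell, giving per-well % myofibroblast differentiation and nuclear counts.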

[2] = test system: TGF–β1–induced NHLF myofibroblasts; experiment: HCA, NHLF myofibroblast reversal assay; assay type: cell-based; settings: Homo sapiens; reversal assay: 24 h 5 ng/ml TGF–β1, washed, 72 h compound
Experimental: Each well of a 384–well clear bottom microtiter plate was coated with 0.1% laminin solution for 60 min at 37°C and rinsed once with PBS. NHLF cells were seeded at a density of 750 cells / well in a volume of 40 μl FGM–2 medium and grown for 24 h at 37°C, 5% CO2 and 95% relative humidity. The plate was washed 3 times with starvation medium, e.g. fibroblast basal medium (FBM, Lonza) supplemented with 0.1% faf BSA, 100 units / ml of penicillin and 100 μg / ml of streptomycin and 250 ng / ml amphotericin B, and then starved for 24 h in 30 μl volume. NHLF were differentiated into myofibroblasts by incubation with 5 ng / ml TGF–β1 (from a stock of 20 μg / ml in 4 mM HCl, 1 mg / ml BSA) for 48 h. Compounds were prepared as 5x stocks in starvation medium and added to the starved cells to a final 1x concentration concomitant with TGF–β1 addition. The final DMSO concentration in the assay was 0.6% in all wells. 48 h after TGF–β1 addition, the medium was removed and the cells were fixed in methanol for 10 min at room temperature (RT). After fixation, cells were washed 3 times with 1 x PBS and either stored at 4°C for up to 3 days or further processed. The fixed cells were blocked with 10% goat serum in PBS, 0.25% Tween–20 for 60 min at RT. The primary antibodies, i.e., mouse monoclonal anti–α–SMA (Sigma–Aldrich) and rabbit anti–FN antibody (Sigma–Aldrich), were diluted 1:400 in 10% goat serum in PBS, 0.25% Tween–20 and the fixed cells were incubated with the antibodies for 60 min at RT. After washing the cells 3 times with 1 x PBS, 0.25% Tween–20 the detection antibodies, i.e., goat anti–mouse AlexaFluor 488 (Invitrogen) and goat anti–rabbit AlexaFluor 647 (Invitrogen) were diluted 1:1000 in 1 x PBS, 0.25% Tween–20 and incubated for 1 h at RT together with 1 μg / ml DAPI to stain nuclei and HCS CellMask Orange Stain to label the entire cell. The stained cells were washed 3 times with 1 x PBS containing 0.25% Tween–20, followed by three washes in 1 x PBS, sealed with backing tape and stored at 4°C. Images were acquired on the Opera Phenix confocal high–content screening system (Perkin Elmer) using the 20–x water immersion lens.
Image analysis: The image data acquired with the HCS system were uploaded to ORBIT, an open source image analysis software developed at Idorsia Pharmaceuticals Ltd (http://www.orbit.bio), and analyzed using 288 CPUs in parallel on our computing grid with the ORBIT Cell–Classifier framework using an appropriate CellProfiler pipeline. DAPI stained nuclei were used to identify cells. α–SMA and FN regions were then identified and mapped to the corresponding nuclei for background correction, cell segmentation and cell feature computation to identify, classify and weigh over 400 features per cell. The computed features (S1 Table) comprise, but are not limited to, granularity, intensity, texture, area, shape and solidity of a cell in both α–SMA–and FN–expressing regions. The 0% compound effect (5 ng / ml TGF–β1) and the 100% compound effect (0 ng / ml TGF–β1) controls, were used to train and validate a support vector machine (SVM), a supervised learning model with associated learning algorithm that, once successfully validated, was applied to every cell in every well of the assayed microtiter plate. The SVM allowed autonomous weighting and classification of the characteristics and thus enabled the classifier to decide which characteristics were most relevant for the differentiation of the cell types. […] The classification of each cell was aggregated to a cell type ratio per well, represented as the computed percentage effect value per well indicative of the degree of myofibroblast differentiation. E.g. 100% equals complete myofibroblast differentiation, 0% indicates a pure fibroblast population without any signs of differentiation.
To identify compounds with potential to revert differentiated myofibroblasts to fibroblasts the assay procedures were modified.

[3] = Homo sapiens, Fibroblast, 48 h, NHLF

Row | Compound | IC50 [1, 3] [nM] | IC50 [2] [nM] | concentrations that reduced cell surface area (CellMask Orange stain) ([1]; HCA, NHLF) [nM] | inhibition at 10 µM ([1]; Homo sapiens, Fibroblast) [%] | IC50 ([1]; NHLF) [nM] | EC50 of myofibroblast differentiation in HCA ([1]; NHLF, 48 h, mean ± SD (n = 7)) [ng/mL]
1 | COC(=O)c1ccc2c(c1)NC(=O)/C2=C(\Nc1ccc(N(C)C(=O)CN2CCN(C)CC2)cc1)c1ccccc1 [Nintedanib] | 760 ± 130 | 6900 |  |  |  | 
2 | C[C@]12CC[C@H](O)C[C@H]1CC[C@@H]1[C@@H]2C[C@@H](O)[C@]2(C)[C@@H](C3=CC(=O)OC3)CC[C@]12O [Digoxigenin] | 220 | 76 | ≥ 1250 | 100 |  | 
3 | CCCCC[C@H](O)/C=C/[C@H]1[C@H](O)CC(=O)[C@@H]1CCCCCCC(=O)O [Alprostadil] | 9 | 280 |  | 97 | 8.6 ± 10 | 
4 | CCCCC[C@H](O)/C=C/[C@H]1[C@H](O)CC(=O)[C@@H]1C/C=C\CCCC(=O)O [PGE2, prostaglandin E2] |  | 145 |  |  |  | 
5 | CC(C)(C)c1ccc(CN(Cc2cccc(OCC(=O)O)c2)S(=O)(=O)c2cccnc2)cc1 [Evatanepag] | 82 ± 110 | 2300 |  |  |  | 
6 | O=C(CC1NCCCC1O)Cn1cnc2cc(Br)c(Cl)cc2c1=O (stereo not shown) [Halofuginone] | 690 ± 320 | 120 |  |  |  | 
7 | Cc1cccc(-c2[nH]c(CNc3ccccc3F)nc2-c2ccc3ncnn3c2)n1 [EW–7197] | 80 ± 30 | 18000 |  |  | 82 ± 30 | 
8 | TGF–β1: transforming growth factor–β1, stimulus of myofibroblast differentiation |  |  |  |  |  | 0.02 ± 0.01

From paper PMC6261607, “Novel high–throughput myofibroblast assays identify agonists with therapeutic potential in pulmonary fibrosis that act via EP2 and EP4 receptors” (PLoS ONE, 2018)
